Data published in ChEMBL document CHEMBL2429725, “New chemotypes for wALADin1-like inhibitors of delta-aminolevulinic acid dehydratase from Wolbachia endobacteria” (Bioorg Med Chem Lett, 2013).
Calls of active or inactive are those of the source. No cut-off for these calls is given here.

How the values were obtained:
[1] = test system: Wolbachia; assay: (§1) Inhibition of recombinant Wolbachia endobacteria ALADH using 5-ALA as substrate after 20 mins
[2] = biological target: T1, Delta-aminolevulinic acid dehydratase (Homo sapiens) (UniProt P13716); assay: (§2) Inhibition of human ALADH after 20 mins
T1 sequence (whole entry): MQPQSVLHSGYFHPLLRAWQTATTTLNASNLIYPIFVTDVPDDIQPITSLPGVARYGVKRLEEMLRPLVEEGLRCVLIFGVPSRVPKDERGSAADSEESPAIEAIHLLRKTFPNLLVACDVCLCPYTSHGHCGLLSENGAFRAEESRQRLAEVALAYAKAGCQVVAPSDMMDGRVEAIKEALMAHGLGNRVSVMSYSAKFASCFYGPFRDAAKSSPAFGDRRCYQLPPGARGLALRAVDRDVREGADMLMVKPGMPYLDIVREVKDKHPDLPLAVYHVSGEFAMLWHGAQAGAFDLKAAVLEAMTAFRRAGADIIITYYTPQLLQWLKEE

[3] = as §1
[4] = test system: Wolbachia; assay: Binding affinity to recombinant Wolbachia endobacteria assessed as change in melting temperature at 6.25 uM by thermal shift assay
[5] = test system: Wolbachia; assay: Non-competitive inhibition of recombinant Wolbachia endobacteria ALADH using 5-ALA as substrate
[6] = biological target: T2, Delta-aminolevulinic acid dehydratase (Homo sapiens, UniProt P13716); assay: as §2
T2 sequence (P13716 whole entry): T1 sequence (whole entry)

[7] = test system: Wolbachia; assay: Binding affinity to recombinant Wolbachia endobacteria assessed as change in melting temperature at 100 uM by thermal shift assay
[8] = test system: Wolbachia; assay: Binding affinity to recombinant Wolbachia endobacteria assessed as change in melting temperature at 12.5 uM by thermal shift assay
[9] = test system: Wolbachia; assay: Binding affinity to recombinant Wolbachia endobacteria assessed as change in melting temperature at 3.1 uM by thermal shift assay
[10] = test system: Wolbachia; assay: Binding affinity to recombinant Wolbachia endobacteria assessed as change in melting temperature at 1.6 uM by thermal shift assay
[11] = test system: Wolbachia; assay: Non-competitive inhibition of recombinant Wolbachia endobacteria ALADH using 5-ALA as substrate in presence of Mg2+
[12] = test system: Wolbachia; assay: Binding affinity to recombinant Wolbachia endobacteria assessed as change in melting temperature at 25 uM by thermal shift assay
[13] = test system: Wolbachia; assay: Inhibition of recombinant Wolbachia endobacteria ALADH using 5-ALA as substrate after 20 mins relative to control

inhibition [1]	inhibition [2]	IC50 [3]	SMILES	also measured
inactive	inactive		Cn1c(CCNC(=O)c2cccs2)nc2cc([N+](=O)[O-])ccc21	
		Not Active	O=C(O)c1c2c(nc3ccccc13)CCN(CC(O)c1ccccc1)C2 (stereo not given)	
			O=C(O)c1c2c(nc3ccccc13)CCN(C(=O)c1cccc(C(F)(F)F)c1)C2	ΔTm [4]: 1.9 °C; inhibition [5]: Active; IC50 ([3]; read-out: IC50): 8.1 µM; IC50 [6]: Not Active; ΔTm [7]: 5.5 °C; ΔTm [8]: 2.8 °C; ΔTm [9]: 1.2 °C; ΔTm [10]: 0.7 °C; inhibition [11]: Active; ΔTm [12]: 3 °C; inhibition [13]: > 30%
	> 25%		O=C(O)c1ccc2c(c1)n(CCN1CCCC1)c(=O)n2Cc1ccc(F)cc1	IC50 ([3]; read-out: IC50): 340 µM; IC50 ([6]; read-out: IC50): > 1000 µM
inactive	inactive		O=C(N[C@@H](Cc1ccccc1)C(=O)O)c1cccs1	
		Not Active	O=C(O)c1c2c(nc3ccccc13)CCN(Cc1ccccc1)C2	
		Not Active	COc1ccc(S(=O)(=O)N2CCc3nc4ccccc4c(C(=O)O)c3C2)cc1	
	> 25%		O=C(O)c1ccc2c(c1)n(Cc1ncccn1)c(=O)n2Cc1ccc(F)cc1	IC50 ([3]; read-out: IC50): > 1000 µM; IC50 ([6]; read-out: IC50): 119 µM
inactive	inactive		CCn1c(CSc2nnc(-c3cccs3)n2Cc2ccccc2)nc2cc(C(=O)O)ccc21	
		Not Active	CC(C)(C)C(=O)N1CCc2nc3ccccc3c(C(=O)O)c2C1	
inactive	inactive		O=C(O)c1ccc2c(c1)n(CC1CCNC1)c(=O)n2Cc1ccc(F)cc1 (stereo not given)	
inactive	inactive		Cc1ccsc1C(=O)NCCc1ccc(C(=O)O)cc1	
			O=C(O)c1cc(-c2ccc(Cl)cc2)cs1	IC50 ([3]; read-out: IC50): 521 µM; IC50 ([6]; read-out: IC50): 85.3 µM; inhibition [13]: > 30%
			O=C(O)c1cc(-c2ccc(Br)cc2)cs1	IC50 ([3]; read-out: IC50): 299 µM; IC50 ([6]; read-out: IC50): 99.7 µM; inhibition [13]: > 30%
		Not Active	O=C(c1cccc(C(F)(F)F)c1)N1CCc2nc3ncccc3cc2C1	
inactive	inactive		O=C(O)CCNC(=O)C(Cc1ccccc1)NC(=O)c1cccs1 (stereo not given)	
		Not Active	O=C(O)c1c2c(nc3ccccc13)CCN(S(=O)(=O)c1ccccc1)C2	
		Not Active	O=C(O)c1c2c(nc3ccccc13)CCN(CC(O)COc1ccccc1)C2 (stereo not given)	
inactive	inactive		CCn1c(CSc2ccc(NC(C)=O)cc2)nc2cc(C(=O)O)ccc21	
inactive	inactive		CC(NC(=O)Cc1ccccc1C(=O)O)C1Nc2ccccc2N1 (stereo not given)	
			O=C(O)c1ccc2c(c1)nc(CCNC(=O)c1cccs1)n2Cc1cccc(C(F)(F)F)c1	IC50 ([3]; read-out: IC50): 11.1 µM; IC50 ([6]; read-out: IC50): 740 µM

SMILES	inhibition [1]	inhibition [2]	IC50 [3]	also measured
CN1CCc2nc3ccccc3c(C(=O)O)c2C1			Not Active	
O=C(O)c1c2c(nc3ccccc13)CCNC2			Not Active	
